We go through 15 molecules from US20240308973A1, “PHOSPHODIESTERASE 3 (PDE3) INHIBITORS” (Zoetis Services LLC, priority 2023, published 2024).

The structures appear in SMILES notation.

For the assay, the target named is dog PDE3A recombinant enzyme (Canis lupus familiaris, UniProt A0A8I3NYE0). The experiment in a line: cPDE3A assay (fluorescent polarization). Type of assay: biochemical. The settings on record: canine PDE3A, read-out: cPDE3 Inhibition (IC50). The method, then: cPDE3A Assay (Fluorescent Polarization)
Sequence of dog PDE3A recombinant enzyme (A0A8I3NYE0 1-1135): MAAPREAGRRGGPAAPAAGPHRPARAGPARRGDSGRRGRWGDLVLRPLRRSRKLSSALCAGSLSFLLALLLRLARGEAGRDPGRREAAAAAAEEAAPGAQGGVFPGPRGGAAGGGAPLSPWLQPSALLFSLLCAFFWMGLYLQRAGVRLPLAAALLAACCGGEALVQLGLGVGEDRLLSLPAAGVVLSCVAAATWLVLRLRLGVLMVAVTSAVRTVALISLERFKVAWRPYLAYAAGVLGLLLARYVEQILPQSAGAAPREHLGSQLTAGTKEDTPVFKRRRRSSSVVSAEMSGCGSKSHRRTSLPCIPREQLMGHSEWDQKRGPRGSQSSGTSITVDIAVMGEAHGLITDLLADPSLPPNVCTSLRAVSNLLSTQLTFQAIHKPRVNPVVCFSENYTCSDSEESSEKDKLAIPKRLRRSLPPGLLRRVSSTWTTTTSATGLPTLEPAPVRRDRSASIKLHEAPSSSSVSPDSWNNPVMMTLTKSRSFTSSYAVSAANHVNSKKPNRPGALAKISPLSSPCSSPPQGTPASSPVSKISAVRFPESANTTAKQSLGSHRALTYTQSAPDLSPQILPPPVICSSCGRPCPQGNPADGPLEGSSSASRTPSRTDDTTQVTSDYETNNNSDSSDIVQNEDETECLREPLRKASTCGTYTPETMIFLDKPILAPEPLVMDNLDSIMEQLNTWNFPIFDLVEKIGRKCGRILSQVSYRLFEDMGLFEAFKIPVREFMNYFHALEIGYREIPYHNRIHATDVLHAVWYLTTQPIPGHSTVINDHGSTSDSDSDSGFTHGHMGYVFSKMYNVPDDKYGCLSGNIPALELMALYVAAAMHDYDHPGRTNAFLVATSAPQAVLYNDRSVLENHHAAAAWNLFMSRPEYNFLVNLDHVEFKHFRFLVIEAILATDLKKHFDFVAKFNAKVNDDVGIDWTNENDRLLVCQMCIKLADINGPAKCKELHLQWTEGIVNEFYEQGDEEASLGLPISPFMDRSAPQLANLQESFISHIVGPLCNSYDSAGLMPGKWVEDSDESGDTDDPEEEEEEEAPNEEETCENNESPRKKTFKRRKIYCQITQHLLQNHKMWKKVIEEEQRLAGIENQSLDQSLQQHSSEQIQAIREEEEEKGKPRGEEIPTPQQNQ
The canine PDE3A assay kit was purchased from BPS Bioscience (San Diego, CA) which included dog PDE3A recombinant enzyme, FAM-cyclic-3′,5′-AMP (20 μM), PDE3 assay buffer, binding agent, binding agent diluent and microtiter 96-well plates. Compounds were initially dissolved in DMSO. The stock concentration was subsequently diluted in cPDE assay buffer (10× stock) and serially diluted to give a concentration response curve starting at 10 μM (≥7 total concentrations). Following the serial dilution, compound solution (0.1% final DMSO) was transferred to an assay plate (96-well) where the remaining canine PDE3A assay reagents were dispensed according to the BPS Bioscience® protocol (catalog #79735) procedure using a final concentration of 5 pg/μL of enzyme. Each compound was evaluated for the inhibition of the canine PDE3A enzyme activity using the measurement of fluorescent polarization changes. The 50% inhibition concentration (IC50) nM was calculated and reported.

On to `COc1cc(-c2cc(C3=NNC(=O)CC3C)cc3c2NC(=O)CC3)ccn1` (stereo not drawn) [Example #1, 8-(2-methoxypyridin-4-yl)-6-(4-methyl-6-oxo-1,4,5,6-tetrahydropyridazin-3-yl)-3,4-dihydroquinolin-2 (1H)-one], for which the IC50 (commonly the concentration that gives 50% inhibition) was determined as 29.2 nM.

As for `CC1CC(=O)NN=C1c1cc2c(c(-c3nccs3)c1)NC(=O)CC2` (stereo not drawn) [Example #2, 6-(4-methyl-6-oxo-1,4,5,6-tetrahydropyridazin-3-yl)-8-(thiazol-2-yl)-3,4-dihydroquinolin-2 (1H)-one], the IC50 amounted to 23.5 nM. The value for `CC1CC(=O)NN=C1c1cc(Br)c2c(c1)CCC(=O)N2` (stereo not drawn) [Example #3, 8-bromo-6-(4-methyl-6-oxo-1,4,5,6-tetrahydropyridazin-3-yl)-3,4-dihydroquinolin-2 (1H)-one] was 3.2 nM; that for `COc1ncc(-c2cc(C3=NNC(=O)CC3C)cc3c2NC(=O)CC3)s1` (stereo not drawn) [Example #4, 8-(2-methoxythiazol-5-yl)-6-(4-methyl-6-oxo-1,4,5,6-tetrahydropyridazin-3-yl)-3,4-dihydroquinolin-2 (1H)-one] was 24.8 nM; that for `CC1CC(=O)NN=C1c1ccc2nc(Nc3ccc(S(C)(=O)=O)cc3)n(C)c2c1` (stereo not drawn) [Example #5, 5-methyl-6-(1-methyl-2-((4-(methylsulfonyl)phenyl)amino)-1H-benzo[d]imidazol-6-yl)-4,5-dihydropyridazin-3 (2H)-one] was 4.9 nM. The value for `O=C1Cc2cc(-c3ccc(=O)[nH]n3)cc(-c3ccc(Cl)cc3)c2N1` [Example #7, 7-(4-chlorophenyl)-5-(6-oxo-1,6-dihydropyridazin-3-yl)indolin-2-one] was 40.6 nM; that for `CC1CC(=O)NN=C1c1cc(Cl)c2c(c1)C1(CC1)C(=O)N2` (stereo not drawn) [Example #8, 7′-chloro-5′-(4-methyl-6-oxo-1,4,5,6-tetrahydropyridazin-3-yl)spiro[cyclopropane-1,3′-indolin]-2′-one] was 3.9 nM. For `O=C1CCc2cc(-c3ccc(=O)[nH]n3)cc(-c3ccc(Cl)cc3)c2N1` [Example #9, 8-(4-chlorophenyl)-6-(6-oxo-1,6-dihydropyridazin-3-yl)-3,4-dihydroquinolin-2 (1H)-one] the value was 13.6 nM; for `CC1CC(=O)NN=C1c1cc2c(c(-c3cccnc3)c1)NC(=O)CC2` (stereo not drawn) [Example #13, 6-(4-methyl-6-oxo-1,4,5,6-tetrahydropyridazin-3-yl)-8-(pyridin-3-yl)-3,4-dihydroquinolin-2 (1H)-one], 44.4 nM; for `Cc1cc(=O)[nH]nc1-c1cc(-c2cscn2)c2c(c1)C(C)(C)C(=O)N2` [Example #17, 3,3-dimethyl-5-(4-methyl-6-oxo-1,6-dihydropyridazin-3-yl)-7-(thiazol-4-yl)indolin-2-one], 62.4 nM.

Regarding `COc1ccc(-c2cc(C3=NNC(=O)CC3C)cc3c2NC(=O)CCC3)cn1` (stereo not drawn) [Example #18, 9-(6-methoxypyridin-3-yl)-7-(4-methyl-6-oxo-1,4,5,6-tetrahydropyridazin-3-yl)-1,3,4,5-tetrahydro-2H-benzo[b]azepin-2-one], the IC50 was determined as 42.1 nM. On to `CC1(C)C(=O)Nc2c(F)cc(-c3ccc(=O)[nH]n3)cc21` [Example #27, 7-fluoro-3,3-dimethyl-5-(6-oxo-1,6-dihydropyridazin-3-yl)indolin-2-one], for which the IC50 is 38.3 nM. The value for `CC1CC(=O)NN=C1c1cc(Cl)c2nc(N)sc2c1` (stereo not drawn) [Example #30, 6-(2-amino-4-chlorobenzo[d]thiazol-6-yl)-5-methyl-4,5-dihydropyridazin-3 (2H)-one] was 4 nM; that for `CC1CC(=O)NN=C1c1cc(F)c2nc(N)sc2c1` (stereo not drawn) [Example #31, 6-(2-amino-4-fluorobenzo[d]thiazol-6-yl)-5-methyl-4,5-dihydropyridazin-3 (2H)-one] was 5.5 nM. The value for `CC1(C)C(=O)Nc2c(Br)cc(-c3ccc(=O)[nH]n3)cc21` [Example #32, 7-bromo-3,3-dimethyl-5-(6-oxo-1,6-dihydropyridazin-3-yl)indolin-2-one] was 26.7 nM.
